Experimental data: patent publication US9676820B2, “Method for inhibiting proliferation of high LIX1L-expressing tumor cell, and tumor cell proliferation-inhibiting peptide” (National University Corporation Hamamatsu University School …, priority 2013, dated 2017)

Tests used:
HL-60 strain = test: Viable cell counts (Trypan blue staining), HL-60 strain; type: cell-based; details: shRNA 2.5 μg/well, vs untreated
Protocol: (§1) Specifically, cells plated such that the density thereof became 1×10^4 cells/3.5 cm well for one plate (6 wells/plate) for each cell strain were cultured for one night in a culture solution having the same composition as those of the culture solutions described in the reference examples. After culturing of 1 well out of the 6 wells was completed, Trypan blue staining was performed on the 1 well, and viable cell counts were counted. The remaining 5 wells were cultured after exchanging the culture solution with a liquid mixture of a Lipofectamine (registered trademark) reagent (12.5 μL/well) and a culture solution (2 mL/well) of which the shRNA concentration became 2.5 μg/well. Then, Trypan blue staining was performed on 1 well 24 hours after the exchange of a culture medium, 1 well 48 hours after the exchange of a culture medium, and the remaining 1 well 72 hours after the exchange of a culture medium, and the viable cell counts were counted. As a control, the viable cell counts were measured (untreated) by performing the culturing similarly to the above except that a culture medium was exchanged with a culture solution to which no shRNA was added.
(§2) Specifically, the viable cell counts were measured after culturing the cells similarly to Example 1 except that a 5 μM culture solution containing a control peptide, a peptide 1, or a peptide 2 was used instead of the culture solution (2 mL/well) of which the shRNA concentration was 2.5 μg/well. The viable cell counts were measured (untreated) by performing the culturing similarly to Example 1 using a culture solution containing no peptide 2, as a control.

K562 strain = test: Viable cell counts (Trypan blue staining), K562 strain; type: cell-based; details: shRNA 2.5 μg/well, vs untreated
Protocol: as §1, §2

KATO-III strain = test: Viable cell counts (Trypan blue staining), KATO-III strain; type: cell-based; details: shRNA 2.5 μg/well, vs untreated
Protocol: as §1

OCUM-1 strain = test: Viable cell counts (Trypan blue staining), OCUM-1 strain; type: cell-based; details: shRNA 2.5 μg/well, vs untreated
Protocol: as §1

LIX1L genes = test: RT-PCR of LIX1L gene expression after shRNA treatment; type: cell-based, human; details: HL-60, K562, KATO-III and OCUM-1 strains; shRNA 2.5 μg/well; after 72 hours
Protocol: In the RT-PCR, first, RNA was extracted and purified from the collected cells using RNeasy Mini Kit (manufactured by QIAGEN). The concentration of total RNA was measured using a spectrophotometer. A reverse transcription reaction was performed using First Strand cDNA Synthesis Kit (manufactured by Roche Life Science) for RT-PCR (AMV), for synthesizing cDNA, in 20 μL of a reaction solution containing 1 μg of total RNA and a random primer for 10 minutes at 25° C., subsequently for 45 minutes at 42° C., and then for 2 minutes at 95° C., to deactivate reverse transcriptase. In all PCRs, TaqMan (registered trademark) polymerase (manufactured by Life Technologies Ltd.) was used. […] The signal intensity of a band of LIX1L in an ethidium bromide staining image was measured using densitometry and a relative value of the signal intensity was calculated. In addition, in all quantitative PCR reactions, SYBR (registered trademark) Green I was used. Quantitative determination was performed in 25 μL of a reaction solution containing the synthesized cDNA and a LIX1L primer using an ABI PRISM 7700 Sequence detector (manufactured by Perkin-Elmer/Applied Biosystems). […]

| Substance | viable cell counts (HL-60 strain; after 48 hours and 72 hours) | viable cell counts (HL-60 strain; until 24 hours) | viable cell counts (K562 strain; after 48 hours and 72 hours) | viable cell counts (K562 strain; until 24 hours) | viable cell counts (KATO-III strain; after 48 hours and 72 hours) | viable cell counts (KATO-III strain; until 24 hours) | viable cell counts (OCUM-1 strain; after 48 hours and 72 hours) | viable cell counts (OCUM-1 strain; until 24 hours) | expression of LIX1L genes (RT-PCR) (LIX1L genes) |
| --- | --- | --- | --- | --- | --- | --- | --- | --- | --- |
| LIX1L shRNA #2: shRNA with respect to LIX1L genes; base sequence shown in FIG. 5B (DNA GAGTCCCGTGGTGCTGACTTAATTCAAGAGATTAAGTCAGCACCACGGGACTCTTTTTT) | decreased more clearly than that of the untreated cells | no particular difference | decreased more clearly than that of the untreated cells | no particular difference | decreased more clearly than that of the untreated cells | no particular difference | decreased more clearly than that of the untreated cells | no particular difference | hardly observed |
| LIX1L shRNA #1: shRNA with respect to LIX1L genes; base sequence shown in FIG. 5A (DNA GAGGAGGTGTTGGCTCATTATTTTCAAGAGAAATAATGAGCCAACACCTCCTCTTTTTT) | decreased more clearly than that of the untreated cells | no particular difference | decreased more clearly than that of the untreated cells | no particular difference | decreased more clearly than that of the untreated cells | no particular difference | decreased more clearly than that of the untreated cells | no particular difference | hardly observed |
